According to ChEMBL document CHEMBL1201862, “PubChem BioAssay data set” (2004):
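48-hour exposure; five concentrations; linearly interpolated endpoints. At the GI50, growth is halved.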 Activity calls are given as the source filed them. Cut-off read from the data, not from the text of the source: active = GI50 up to about 1.1 µM and inactive = higher.

Tests used:
Experiment in all cases: NCI anticancer screen, dose series, 48 h
786-0 = system: 786-0
A549 = system: A549
ACHN = system: ACHN
CAKI-1 = system: CAKI-1
CCRF-CEM = system: CCRF-CEM
COLO 205 = system: COLO 205
DU-145 = system: DU-145
EKVX = system: EKVX
HCC 2998 = system: HCC 2998
HCT-116 = system: HCT-116
HCT-15 = system: HCT-15
HL-60 = system: HL-60
HOP-62 = system: HOP-62
HOP-92 = system: HOP-92
HT-29 = system: HT-29
Hs-578T = system: Hs-578T
IGROV-1 = system: IGROV-1
K562 = system: K562
KM12 = system: KM12
LOX IMVI = system: LOX IMVI
M14 = system: M14
MCF7 = system: MCF7
MDA-MB-231 = system: MDA-MB-231
MDA-MB-435 = system: MDA-MB-435
MDA-N = system: MDA-N
MOLT-4 = system: MOLT-4
Malme-3M = system: Malme-3M
NCI-H226 = system: NCI-H226
NCI-H23 = system: NCI-H23
NCI-H460 = system: NCI-H460
NCI/ADR-RES = system: NCI/ADR-RES
OVCAR-3 = system: OVCAR-3
OVCAR-4 = system: OVCAR-4
OVCAR-5 = system: OVCAR-5
OVCAR-8 = system: OVCAR-8
PC-3 = system: PC-3
RPMI-8226 = system: RPMI-8226
RXF 393 = system: RXF 393
SF-268 = system: SF-268
SF-295 = system: SF-295
SF-539 = system: SF-539
SK-MEL-28 = system: SK-MEL-28
SK-MEL-2 = system: SK-MEL-2
SK-MEL-5 = system: SK-MEL-5
SK-OV-3 = system: SK-OV-3
SN12C = system: SN12C
SNB-19 = system: SNB-19
SR = system: SR
SW-620 = system: SW-620
T47D = system: T47D
TK-10 = system: TK-10
U-251 = system: U-251
UACC-257 = system: UACC-257
UACC-62 = system: UACC-62
UO-31 = system: UO-31
SNB-75 = system: SNB-75
A498 = system: A498
NCI-H522 = system: NCI-H522

Structure (SMILES): Oc1c(N2CCCCC2)cc(-c2cc(N3CCCCC3)c(O)c3ccccc23)c2ccccc12
- GI50 (786-0): 22.3 µM (inactive)
- GI50 (A549): 39.3 µM (inactive)
- GI50 (ACHN): 49.1 µM (inactive)
- GI50 (CAKI-1): > 100 µM (inactive)
- GI50 (CCRF-CEM): 30.2 µM (inactive)
- GI50 (COLO 205): 26.2 µM (inactive)
- GI50 (DU-145): 23.4 µM (inactive)
- GI50 (EKVX): > 100 µM (inactive)
- GI50 (HCC 2998): 33.5 µM (inactive)
- GI50 (HCT-116): 19 µM (inactive)
- GI50 (HCT-15): 35.2 µM
- GI50 (HL-60): 27.7 µM (inactive)
- GI50 (HOP-62): 32.1 µM (inactive)
- GI50 (HOP-92): 23.4 µM (inactive)
- GI50 (HT-29): 23 µM (inactive)
- GI50 (Hs-578T): 27.7 µM (inactive)
- GI50 (IGROV-1): 43.7 µM (inactive)
- GI50 (K562): 71.9 µM (inactive)
- GI50 (KM12): 64.1 µM (inactive)
- GI50 (LOX IMVI): 25.1 µM (inactive)
- GI50 (M14): 16.7 µM (inactive)
- GI50 (MCF7): 22.9 µM (inactive)
- GI50 (MDA-MB-231): 39.8 µM (inactive)
- GI50 (MDA-MB-435): 4.24 µM (inactive)
- GI50 (MDA-N): 17 µM (inactive)
- GI50 (MOLT-4): 22.9 µM (inactive)
- GI50 (Malme-3M): 12 µM (inactive)
- GI50 (NCI-H226): > 100 µM (inactive)
- GI50 (NCI-H23): 24.9 µM (inactive)
- GI50 (NCI-H460): 43 µM (inactive)
- GI50 (NCI/ADR-RES): 34.2 µM (inactive)
- GI50 (OVCAR-3): 23.3 µM (inactive)
- GI50 (OVCAR-4): 17.1 µM (inactive)
- GI50 (OVCAR-5): 72.4 µM (inactive)
- GI50 (OVCAR-8): 33 µM (inactive)
- GI50 (PC-3): 31.3 µM (inactive)
- GI50 (RPMI-8226): 29.6 µM (inactive)
- GI50 (RXF 393): 20.4 µM (inactive)
- GI50 (SF-268): 26 µM (inactive)
- GI50 (SF-295): 41.2 µM (inactive)
- GI50 (SF-539): 33.2 µM (inactive)
- GI50 (SK-MEL-28): 19.9 µM (inactive)
- GI50 (SK-MEL-2): 25.2 µM (inactive)
- GI50 (SK-MEL-5): 17.5 µM (inactive)
- GI50 (SK-OV-3): > 100 µM (inactive)
- GI50 (SN12C): 27.6 µM (inactive)
- GI50 (SNB-19): 98.4 µM (inactive)
- GI50 (SR): 0.368 µM (active)
- GI50 (SW-620): 29.3 µM (inactive)
- GI50 (T47D): 32.4 µM (inactive)
- GI50 (TK-10): > 100 µM (inactive)
- GI50 (U-251): 35.2 µM (inactive)
- GI50 (UACC-257): 14.9 µM (inactive)
- GI50 (UACC-62): 21.1 µM (inactive)
- GI50 (UO-31): > 100 µM (inactive)

Structure (SMILES): Cn1c2ccccc2c(=O)c2c(O)cc3c(c21)C1OCC(C)(O)C1O3 (stereo not given)
- GI50 (786-0): 39.2 µM (inactive)
- GI50 (A549): 61.8 µM (inactive)
- GI50 (ACHN): 67.8 µM (inactive)
- GI50 (CAKI-1): 30.7 µM (inactive)
- GI50 (CCRF-CEM): 23.8 µM (inactive)
- GI50 (COLO 205): 51.1 µM (inactive)
- GI50 (DU-145): 29.2 µM (inactive)
- GI50 (EKVX): 7.48 µM (inactive)
- GI50 (HCC 2998): > 100 µM (inactive)
- GI50 (HCT-116): 37.8 µM (inactive)
- GI50 (HCT-15): 53.3 µM
- GI50 (HL-60): 81.5 µM (inactive)
- GI50 (HOP-62): 23.6 µM (inactive)
- GI50 (HT-29): 31.8 µM (inactive)
- GI50 (Hs-578T): 6.47 µM (inactive)
- GI50 (IGROV-1): 25.3 µM (inactive)
- GI50 (K562): 53.3 µM (inactive)
- GI50 (M14): > 100 µM (inactive)
- GI50 (MCF7): 51.5 µM (inactive)
- GI50 (MDA-MB-231): > 100 µM (inactive)
- GI50 (MDA-MB-435): > 100 µM (inactive)
- GI50 (MDA-N): > 100 µM (inactive)
- GI50 (MOLT-4): 28.2 µM (inactive)
- GI50 (NCI-H226): 10.5 µM (inactive)
- GI50 (NCI-H460): > 10 µM (inactive)
- GI50 (NCI/ADR-RES): 42.9 µM (inactive)
- GI50 (OVCAR-4): > 100 µM (inactive)
- GI50 (OVCAR-5): 19.5 µM (inactive)
- GI50 (OVCAR-8): 34 µM (inactive)
- GI50 (PC-3): 44.7 µM (inactive)
- GI50 (RPMI-8226): 85.7 µM (inactive)
- GI50 (RXF 393): 22.5 µM (inactive)
- GI50 (SF-268): 26.6 µM (inactive)
- GI50 (SF-539): 21.6 µM (inactive)
- GI50 (SK-MEL-28): 83.9 µM (inactive)
- GI50 (SK-MEL-2): 28.3 µM (inactive)
- GI50 (SK-MEL-5): 50.2 µM (inactive)
- GI50 (SK-OV-3): 37.2 µM (inactive)
- GI50 (SN12C): 58.2 µM (inactive)
- GI50 (SNB-19): 26.6 µM (inactive)
- GI50 (SNB-75): 22.9 µM (inactive)
- GI50 (SR): 46.7 µM (inactive)
- GI50 (SW-620): 80 µM (inactive)
- GI50 (T47D): 42.7 µM (inactive)
- GI50 (TK-10): 82 µM (inactive)
- GI50 (U-251): 21.4 µM (inactive)
- GI50 (UACC-257): > 100 µM (inactive)
- GI50 (UACC-62): > 10 µM (inactive)
- GI50 (UO-31): 5.4 µM (inactive)

Structure (SMILES): [N-]=[N+]=Nc1c(Cc2ccccc2)c(Cl)nc2ccccc12
- GI50 (786-0): 35.6 µM (inactive)
- GI50 (A498): 26.2 µM (inactive)
- GI50 (A549): 36.3 µM (inactive)
- GI50 (ACHN): 25.1 µM (inactive)
- GI50 (CAKI-1): 21.4 µM (inactive)
- GI50 (CCRF-CEM): 39.8 µM (inactive)
- GI50 (COLO 205): 15.1 µM (inactive)
- GI50 (DU-145): 42.8 µM (inactive)
- GI50 (EKVX): 27.2 µM (inactive)
- GI50 (HCC 2998): 49.4 µM (inactive)
- GI50 (HCT-116): 17.5 µM (inactive)
- GI50 (HCT-15): 35.2 µM
- GI50 (HL-60): 23.8 µM (inactive)
- GI50 (HOP-62): 22.4 µM (inactive)
- GI50 (HOP-92): 20.2 µM (inactive)
- GI50 (HT-29): 31.6 µM (inactive)
- GI50 (Hs-578T): 21.3 µM (inactive)
- GI50 (IGROV-1): 26.6 µM (inactive)
- GI50 (K562): 23.9 µM (inactive)
- GI50 (KM12): 16.3 µM (inactive)
- GI50 (LOX IMVI): 18.4 µM (inactive)
- GI50 (M14): 20.8 µM (inactive)
- GI50 (MCF7): 21.3 µM (inactive)
- GI50 (MDA-MB-231): 18.7 µM (inactive)
- GI50 (MDA-MB-435): 13.6 µM (inactive)
- GI50 (MDA-N): 21.9 µM (inactive)
- GI50 (MOLT-4): 28.8 µM (inactive)
- GI50 (Malme-3M): 21.1 µM (inactive)
- GI50 (NCI-H226): 16 µM (inactive)
- GI50 (NCI-H23): 28.8 µM (inactive)
- GI50 (NCI-H460): 35.4 µM (inactive)
- GI50 (NCI-H522): 27.5 µM (inactive)
- GI50 (NCI/ADR-RES): 22.4 µM (inactive)
- GI50 (OVCAR-3): 12.5 µM (inactive)
- GI50 (OVCAR-4): 42 µM (inactive)
- GI50 (OVCAR-5): 31 µM (inactive)
- GI50 (OVCAR-8): 20.8 µM (inactive)
- GI50 (PC-3): 25.6 µM (inactive)
- GI50 (RPMI-8226): 38.3 µM (inactive)
- GI50 (RXF 393): 15.7 µM (inactive)
- GI50 (SF-268): 33.6 µM (inactive)
- GI50 (SF-295): 22.2 µM (inactive)
- GI50 (SF-539): 21.7 µM (inactive)
- GI50 (SK-MEL-28): 45.5 µM (inactive)
- GI50 (SK-MEL-2): 16.6 µM (inactive)
- GI50 (SK-MEL-5): 15.4 µM (inactive)
- GI50 (SK-OV-3): 53 µM (inactive)
- GI50 (SN12C): 23.6 µM (inactive)
- GI50 (SNB-19): 19.1 µM (inactive)
- GI50 (SNB-75): 22.6 µM (inactive)
- GI50 (SW-620): 33.4 µM (inactive)
- GI50 (T47D): 32.6 µM (inactive)
- GI50 (TK-10): 23.8 µM (inactive)
- GI50 (UACC-257): 33.5 µM (inactive)
- GI50 (UACC-62): 22.6 µM (inactive)
- GI50 (UO-31): 28.6 µM (inactive)
